Assay results published in US20130137102A1, “Methods and kits for modulating tumor invasiveness and metastatic potential” (TUFTS MEDICAL CENTER, INC., priority 2010, published 2013).
Where a SMILES comes first, the peptide text is derived from it. [ ]: non-standard residue; d: D form. Nle = CCCC[C@H](N)C(=O)O

What was measured:
[1] = system: HMECs; assay: Spheroid co-culture in Matrigel with senescent RMFs; type: cell-based, human; conditions: RMFs exposed to the agent before co-culture; preliminary examples
Experimental: (§1) As described previously [Xu K, et al., 2010, Oncogene 29:6533-42], Matrigel (BD Biosciences) was diluted in 1:1 ratio with ice-cold HMEC medium, and 50 μl of the mixture was placed mid-well in a 24-well plate. After incubating for 5 min in 37° C., an additional 250 μl of Matrigel:medium mixture was added into the well and incubated for another 30 min. A 1:1 mixture of HMEC and RMF cells (0.5×10^5 cells each) in 0.5 ml of HMEC medium was gently dropped onto the top of the solidified gel. Cells were cultured for two weeks and medium was changed every two or three days. Spheroid formation and projection growth were monitored daily under light microscopy. Images were obtained on a Diaphot Software Version 4.1 (Diagnostic Instruments Inc).
as §1, with “and 50 ul of the” for “and 50 μl of the”, “another 30 min A 1:1” for “another 30 min. A 1:1”, “light microscopy. […]” for “light microscopy. Images were obtained on a Diaphot Software Version 4.1 (Diagnostic Instruments Inc).”

[2] = system: RMF cells; assay: Senescence induction and SA-β-Gal staining; type: cell-based, human; conditions: repeated 3-5 days later, seven days after induction
Experimental: After treatment, cells were rinsed twice with phosphate-buffered saline (PBS) and left to recover in culture medium. […] For each treatment, senescence induction was repeated 3-5 days later to prevent recovery and cell cycle re-entry. Cells were sub-cultured for at least 7 days and senescence induction was confirmed by SA-β-gal staining.
SA-β-Gal staining was conducted as described previously [Dimri, G P, et al., 1995, Proc Natl Acad Sci USA 92:9363-7]. Briefly, cells were washed twice in PBS and fixed 5 minutes in 2% formaldehyde/0.2% glutaraldehyde, washed again, and incubated at 37° C. overnight with fresh senescence-associated β-Gal (SA-β-Gal) stain solution: 1 mg 5-bromo-4-chloro-3-indolyl-β-D-galactoside (X-Gal) per ml (stock=20 mg in dimethylformamide per ml)/40 mM citric acid/sodium phosphate, pH 6.0/5 mM potassium ferrocyanide/5 mM potassium ferricyanide/150 mM NaCl/2 mM MgCl2. Cells with positive staining were observed and counted under a light microscope (Nikon, Eclipse TS100).

[3] = system: T-cell lymphoma invasion and metastasis-inducing protein 1 (Tiam1)
Chain of T-cell lymphoma invasion and metastasis-inducing protein 1 (Tiam1) (chain, as listed by the source): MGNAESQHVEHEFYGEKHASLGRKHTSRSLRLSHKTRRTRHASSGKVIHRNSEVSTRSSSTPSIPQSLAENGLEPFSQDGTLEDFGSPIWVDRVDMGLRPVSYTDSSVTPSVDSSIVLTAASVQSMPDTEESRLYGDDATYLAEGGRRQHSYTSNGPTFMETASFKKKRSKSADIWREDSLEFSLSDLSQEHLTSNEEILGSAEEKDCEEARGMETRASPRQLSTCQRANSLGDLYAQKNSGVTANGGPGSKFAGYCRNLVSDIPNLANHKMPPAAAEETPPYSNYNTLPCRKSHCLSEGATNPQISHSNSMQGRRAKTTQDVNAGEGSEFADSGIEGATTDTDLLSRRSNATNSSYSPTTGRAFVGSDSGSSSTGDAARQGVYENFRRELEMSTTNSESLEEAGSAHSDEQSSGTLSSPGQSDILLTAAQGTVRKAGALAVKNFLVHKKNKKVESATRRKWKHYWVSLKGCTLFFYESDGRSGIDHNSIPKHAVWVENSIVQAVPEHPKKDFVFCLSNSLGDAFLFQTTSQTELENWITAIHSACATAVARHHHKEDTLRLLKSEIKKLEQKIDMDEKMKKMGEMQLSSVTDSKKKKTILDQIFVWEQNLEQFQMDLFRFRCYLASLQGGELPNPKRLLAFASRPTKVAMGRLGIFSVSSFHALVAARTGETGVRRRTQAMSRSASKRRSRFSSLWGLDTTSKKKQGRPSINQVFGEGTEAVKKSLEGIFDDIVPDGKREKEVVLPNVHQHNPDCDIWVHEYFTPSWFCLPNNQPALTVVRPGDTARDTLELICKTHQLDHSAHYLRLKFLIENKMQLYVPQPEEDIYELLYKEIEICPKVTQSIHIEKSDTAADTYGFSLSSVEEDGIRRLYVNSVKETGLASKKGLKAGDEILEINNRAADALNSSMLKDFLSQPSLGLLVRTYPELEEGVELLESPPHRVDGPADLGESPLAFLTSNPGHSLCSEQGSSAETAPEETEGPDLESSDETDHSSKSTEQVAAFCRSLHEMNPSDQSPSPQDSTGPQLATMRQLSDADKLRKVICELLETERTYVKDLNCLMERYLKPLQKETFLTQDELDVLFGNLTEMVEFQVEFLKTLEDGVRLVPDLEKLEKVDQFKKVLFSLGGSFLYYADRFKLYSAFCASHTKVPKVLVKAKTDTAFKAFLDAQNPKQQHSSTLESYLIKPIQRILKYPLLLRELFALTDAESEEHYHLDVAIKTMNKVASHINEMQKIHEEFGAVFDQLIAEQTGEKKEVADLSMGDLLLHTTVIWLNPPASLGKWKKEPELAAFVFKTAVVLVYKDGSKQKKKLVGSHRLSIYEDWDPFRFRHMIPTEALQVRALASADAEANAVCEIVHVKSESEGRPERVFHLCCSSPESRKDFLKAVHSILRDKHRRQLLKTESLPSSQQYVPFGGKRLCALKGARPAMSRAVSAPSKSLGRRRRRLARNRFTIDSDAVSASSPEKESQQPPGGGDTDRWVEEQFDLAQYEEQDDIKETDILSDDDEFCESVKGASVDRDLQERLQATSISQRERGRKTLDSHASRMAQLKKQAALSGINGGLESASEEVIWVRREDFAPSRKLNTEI

[4] = system: Tiam1; assay: In vitro Tiam1 cleavage assay; type: biochemical, human; conditions: immunoblot
Experimental: HEK293T cells were transiently transfected with full-length Tiam1 cDNA as previously described (Buchsbaum et al., 2002). Forty-eight hours after transfection, cells were washed once with PBS and lysed in SP buffer as described above. Lysates were cleared of unbroken cells and debris by centrifugation at 10,000×g for 10 minutes. Aliquots of cleared lysates were reserved for immunoblots; the remainder were incubated with protein A-Sepharose beads (Pharmacia) and anti-Tiam1 antibody (diluted according to the manufacturer's instructions) or equal amounts of polyclonal rabbit IgG (Santa Cruz) for 2 h at 4° C. with constant agitation. Immunoprecipitates were washed twice with ice-cold SP buffer and once with Reaction Buffer (20 mM Tris-HCl, pH 7.5, 10 mM DTT, 6 mM CaCl2) in the presence of protease inhibitors (1 mM PMSF and 1.7 μg/ml aprotinin) prior to the cleavage reaction.
Pre-senescent cells were maintained in culture as described above. Senescence was induced with 800 uM H2O2 as described above, and confirmed by SA-β gal staining. Pre-senescent and senescent RMFs were washed with cold PBS, pelleted, and resuspended in extraction buffer (10 mM HEPES pH 7.0, 2 mM MgCl2, 50 mM NaCl, 1 mM DTT) containing inhibitors (17 μg/ml aprotinin, 10 μg/ml leupepsin, 100 μM NaV, 3.3 mM PMSF). Cells were lysed by freeze-thaw cycles in ethanol-liquid nitrogen/37° C. water bath. Extracts were centrifuged at 10,000 g for 15 min at 4° C., and resulting supernatants were used as the cytosolic fraction. Protein concentration was determined by BCA protein assay (Bio-Rad).
Immunoprecipitated proteins were incubated with extracted lysates from pre-senescent or senescent cells in Reaction Buffer for 2 hours at 37° C. with constant agitation. […] Samples were resolved by SDS-PAGE and immunoblotting as described.

Compound: OO [H2O2, hydrogen peroxide]
- HMEC invasiveness into matrix on co-culture with RMFs rendered senescent by the agent [1]: increased invasiveness into the surrounding matrix
- induction of senescence (morphology, SA β-gal staining) ([2]; 800 μmol/L H2O2 for 2 hours): had taken on a morphologic appearance characteristic of senescence

Compound: calpain proteases
- degradation of immunoprecipitated Tiam1 (in vitro Tiam1 cleavage assay, immunoblot) [3]: Pre-incubation of cell lysates with either the calpain inhibitor ALLN or the calcium-chelator EDTA significantly inhibited degradation of the immobilized Tiam1 induced by senescent lysates

Compound: bleomycin
- HMEC invasiveness into matrix on co-culture with RMFs rendered senescent by the agent [1]: increased invasiveness into the surrounding matrix
- induction of senescence (morphology, SA β-gal staining) ([2]; 50 μg/ml bleomycin for 24 hours): had taken on a morphologic appearance characteristic of senescence

Compound: O=C(O)CN(CCN(CC(=O)O)CC(=O)O)CC(=O)O [EDTA]
- degradation of immobilized Tiam1 induced by senescent lysates ([4]; lysates pre-incubated on ice 30 minutes with 1 mM EDTA): significantly inhibited degradation of the immobilized Tiam1

Compound: CCCC[C@@H](C=O)NC(=O)[C@H](CC(C)C)NC(=O)[C@H](CC(C)C)NC(C)=O [ALLN] (Ac-Leu-Leu-[Nle]-aldehyde)
- degradation of immobilized Tiam1 induced by senescent lysates ([4]; lysates pre-incubated on ice 30 minutes with 50 μM ALLN): significantly inhibited degradation of the immobilized Tiam1

Compound: CC(C)C[C@H](NC(=O)[C@H](Cc1ccccc1)NC(=O)c1cnccn1)B(O)O [bortezomib]
- degradation of immobilized Tiam1 by senescent lysates ([4]; lysates pre-incubated with 5 nM bortezomib at 37° C. for 24 hours): did not prevent degradation of immobilized Tiam1
